# Paper PMC12613816, “Discovery of Novel Isoxazole-Based Small-Molecule Toll-Like Receptor 8 Antagonists” (Journal of Medicinal Chemistry, 2025)
# What was measured:
# [1] = tested on: THP-1 macrophages; experiment: Cell viability (MTT) in THP-1 macrophages; format: cell-based, human; details: 24 h, up to 100 μM
# Description: Effects on cell viability were assessed by the MTT assay. […] Subsequently, 25 μL of MTT (3-(4,5-dimethylthiazol-2-yl)-2,5-diphenyltetrazolium bromide, 5 mg/mL) was added and incubated for 4 h at 37 °C. After the supernatants were removed, DMSO (4720.1, Carl Roth, Karlsruhe, Germany) was added and absorption at 540 nm was measured. Viability of the untreated cells was defined as 100%. DMSO (10% (v/v); A994.1, Carl Roth, Karlsruhe, Germany) served as a positive control. page 9: Figure S8. […] (A) THP-1 Macrophages were incubated with increasing concentrations of 10 and 12 for 24 h. Cell viability was analyzed using the MTT assay, and normalized to non-stimulated cells (vehicle control). DMSO (10%, v/v) was used as the cytotoxic control. Mean + SEM (n=3). (B) PBMCs
# [2] = tested on: TNF and IL1B mRNA expression; experiment: TNF and IL1B mRNA expression (qRT-PCR) in TL8-506-stimulated THP-1 macrophages; format: cell-based, human; details: 10 μM, TL8-506 (6 μM) 1 h
# [3] = tested on: TLR2/1, TLR2/6, TLR3, TLR4, TLR5, TLR7, TLR9; experiment: TLR specificity in hTLR-HEK293 reporter cells (NF-κB SEAP); format: cell-based, human; details: 10 μM compound
# Description: (§1) Mean + SEM (n = 3). […] Bar graphs show mean + SEM (n = 3). […] Mean + SEM (n = 4). […] Whole-cell lysates were used for WB. […] Mean + SEM (n = 4). […] Mean + SEM (n = 4). […] Mean ± SEM (n = 3).
# HEK-Blue cells (4 × 10^4 cells/well) and THP-1 macrophages (4 × 10^4 cells/well, 4 × 10^5 cells/well and 8 × 10^5 cells/well) were seeded in 96-well plates, 24-well plates, or 6-well plates (PS, Sarsted, Germany), respectively. For stimulation experiments, cells were washed with phosphate-buffered saline (PBS, Sigma-Aldrich) and media was replaced with OptiMEM (Thermo Fisher Scientific, Darmstadt, Germany). […] The following TLR ligands were used: Pam2CSK4, Pam3CSK4, poly(I:C) (HMW), LPS from Escherichia coli O111:B4 (LPS-EB Ultrapure), flagellin from Bacillus subtilis (flagellin-BS Ultrapure), CL307, CL075, R848, TL8-506, ODN2006 (all from InvivoGen, Toulouse, France), and Enpatoran (BIOZOL Diagnostika, Germany).
# [4] = tested on: TLR2 or TLR4; experiment: TNF release in THP-1 macrophages stimulated with TLR2 or TLR4 agonists (Pam3CSK4, Pam2CSK4, LPS); format: cell-based, human; details: 10 μM compound, 24 h
# Description: Mean ± SEM (n = 3). […] Mean + SEM (n = 4).
# [5] = tested on: IL-1β release; experiment: IL-1β release after TLR8 priming and NLRP3 activation in THP-1 macrophages; format: cell-based, human; details: 10 μM, TL8-506 priming, nigericin or ATP
# Description: as §1
# [6] = tested on: PBMCs; experiment: Cell viability (LDH release) in PBMCs; format: cell-based, human; details: 24 h, up to 100 μM
# Description: In selected experiments, LDH assay was performed according to the manufacturer’s instructions (Thermo fisher Scientific, Darmstadt, Germany). The percentage of LDH release was calculated compared to the 100% cell lysis control.
# (A) THP-1 Macrophages were incubated with increasing concentrations of 10 and 12 for 24 h. Cell viability was analyzed using the MTT assay, and normalized to non-stimulated cells (vehicle control). DMSO (10%, v/v) was used as the cytotoxic control. Mean + SEM (n=3). (B) PBMCs were incubated with 0.6 µM TL8-506 or increasing concentrations of 10 and 12 for 24 h. LDH […]
# maximum LDH release. Mean + SEM (n=3-4).
# [7] = tested on: p-NF-κB p65, IκBα; experiment: Western blot of NF-κB pathway proteins in TL8-506-stimulated THP-1 macrophages; format: cell-based, human; details: 10 μM, TL8-506 (0.6 μM) 15 min
# Description: as §1
# Twenty-five μg protein per lane was separated on a 10% TGX Stain-Free FastCast acrylamide gel (1610183, Bio-Rad, Feldkirchen, Germany) containing TEMED (2367, Carl Roth, Karlsruhe, Germany) and ammonium persulfate (A3678, Sigma-Aldrich, Taufkirchen, Germany) using MiniPROTEAN electrophoresis system (Bio-Rad). Gels were blotted on low fluorescence polyvinylidene difluoride membranes (Immobilon-FL PVDF low fluorescence; 05317, Merck, Darmstadt, Germany) using the Trans-Blot Turbo System (Bio-Rad, Feldkirchen, Germany). Membranes were blocked using 5% milk (T145.2, Carl Roth, Karlsruhe, Germany) in TBS-T buffer consisting of TRIS HCl (T3253, Sigma-Aldrich, Taufkirchen, Germany), NaCl (27810.295, VWR, Darmstadt, Germany), and Tween 20 (9127.1, Carl Roth, Karlsruhe, Germany). […] Afterward, they were washed three times with TBS-T and incubated with either rabbit anti-IgG HRP conjugated antibody (no. 7074) or mouse anti-IgG HRP conjugated antibody (no. 7076), all from Cell Signaling Technology (CST, Leiden, The Netherlands), for one h at RT. […] Values of protein expression were analyzed by densitometry and normalized to total protein levels using Image lab 6.1 Bio-Rad, Feldkirchen, Germany.
# [8] = molecular target: T1, TLR8 (Homo sapiens, UniProt Q9NR97); experiment: Inhibition of TL8-506-stimulated NF-κB activity (SEAP reporter, QuantiBlue) in hTLR8-HEK293 reporter cells; format: cell-based; design: host or cells: HEK293 (HEK-Blue hTLR8)
# T1 sequence (Q9NR97 27-1041): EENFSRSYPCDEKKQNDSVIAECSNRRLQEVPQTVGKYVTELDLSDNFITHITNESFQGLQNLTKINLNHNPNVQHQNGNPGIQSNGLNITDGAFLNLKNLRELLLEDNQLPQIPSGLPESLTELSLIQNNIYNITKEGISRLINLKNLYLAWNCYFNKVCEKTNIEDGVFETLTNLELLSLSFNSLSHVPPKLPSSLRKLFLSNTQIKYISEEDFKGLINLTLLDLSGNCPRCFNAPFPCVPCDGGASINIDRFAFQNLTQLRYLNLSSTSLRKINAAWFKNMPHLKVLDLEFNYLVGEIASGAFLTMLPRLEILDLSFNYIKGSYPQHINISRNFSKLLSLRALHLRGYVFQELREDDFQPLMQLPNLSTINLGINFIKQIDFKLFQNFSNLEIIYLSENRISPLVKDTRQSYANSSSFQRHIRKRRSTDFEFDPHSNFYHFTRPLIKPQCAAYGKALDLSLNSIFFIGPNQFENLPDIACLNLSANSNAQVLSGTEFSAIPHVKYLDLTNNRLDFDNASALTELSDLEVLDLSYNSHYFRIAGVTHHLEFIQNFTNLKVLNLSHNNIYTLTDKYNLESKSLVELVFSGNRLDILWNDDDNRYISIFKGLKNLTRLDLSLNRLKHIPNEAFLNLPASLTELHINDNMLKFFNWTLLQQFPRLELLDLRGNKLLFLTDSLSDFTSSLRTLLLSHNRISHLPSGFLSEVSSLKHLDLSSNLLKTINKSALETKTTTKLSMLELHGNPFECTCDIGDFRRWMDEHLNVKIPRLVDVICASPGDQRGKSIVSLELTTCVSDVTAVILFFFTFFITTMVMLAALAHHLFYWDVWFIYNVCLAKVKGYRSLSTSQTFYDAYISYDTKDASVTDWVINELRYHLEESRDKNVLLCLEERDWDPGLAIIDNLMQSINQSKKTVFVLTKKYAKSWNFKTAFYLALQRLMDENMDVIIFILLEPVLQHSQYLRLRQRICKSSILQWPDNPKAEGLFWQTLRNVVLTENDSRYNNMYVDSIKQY
# [9] = molecular target: T2, hTLR7 (Homo sapiens, UniProt Q9NYK1); experiment: Inhibition of CL307-stimulated NF-κB activity (SEAP reporter) in hTLR7-HEK293 reporter cells; format: cell-based
# T2 construct: host or cells: HEK293 (HEK-Blue hTLR7)
# T2 sequence (Q9NYK1 27-1049): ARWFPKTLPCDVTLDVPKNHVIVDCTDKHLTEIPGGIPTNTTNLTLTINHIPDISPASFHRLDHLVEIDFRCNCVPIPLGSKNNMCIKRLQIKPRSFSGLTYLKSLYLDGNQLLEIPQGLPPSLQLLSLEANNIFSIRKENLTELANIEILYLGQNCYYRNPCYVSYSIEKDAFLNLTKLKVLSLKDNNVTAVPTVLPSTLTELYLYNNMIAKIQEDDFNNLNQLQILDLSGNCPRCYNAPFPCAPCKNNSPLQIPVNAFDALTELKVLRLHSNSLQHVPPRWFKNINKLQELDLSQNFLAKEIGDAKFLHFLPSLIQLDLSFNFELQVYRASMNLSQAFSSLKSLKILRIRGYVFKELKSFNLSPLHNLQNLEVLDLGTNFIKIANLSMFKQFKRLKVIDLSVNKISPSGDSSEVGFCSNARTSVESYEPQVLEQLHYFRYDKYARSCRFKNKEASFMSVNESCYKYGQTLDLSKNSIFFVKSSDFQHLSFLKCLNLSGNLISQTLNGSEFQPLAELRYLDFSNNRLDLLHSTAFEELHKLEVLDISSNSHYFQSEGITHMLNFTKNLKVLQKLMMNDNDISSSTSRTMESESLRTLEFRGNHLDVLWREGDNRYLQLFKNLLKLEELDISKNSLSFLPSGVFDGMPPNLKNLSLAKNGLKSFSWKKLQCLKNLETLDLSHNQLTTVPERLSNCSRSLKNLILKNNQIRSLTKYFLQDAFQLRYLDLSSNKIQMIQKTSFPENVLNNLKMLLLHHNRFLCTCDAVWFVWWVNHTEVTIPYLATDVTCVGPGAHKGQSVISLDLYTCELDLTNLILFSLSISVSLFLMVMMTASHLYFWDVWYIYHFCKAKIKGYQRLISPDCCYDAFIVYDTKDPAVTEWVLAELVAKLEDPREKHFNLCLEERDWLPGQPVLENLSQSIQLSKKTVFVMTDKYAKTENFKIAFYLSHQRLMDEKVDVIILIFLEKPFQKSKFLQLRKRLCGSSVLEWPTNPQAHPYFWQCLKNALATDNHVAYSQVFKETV
# Description: For stimulation experiments, cells were washed with phosphate-buffered saline (PBS, Sigma-Aldrich) and media was replaced with OptiMEM (Thermo Fisher Scientific, Darmstadt, Germany). […] The following TLR ligands were used: Pam2CSK4, Pam3CSK4, poly(I:C) (HMW), LPS from Escherichia coli O111:B4 (LPS-EB Ultrapure), flagellin from Bacillus subtilis (flagellin-BS Ultrapure), CL307, CL075, R848, TL8-506, ODN2006 (all from InvivoGen, Toulouse, France), and Enpatoran (BIOZOL Diagnostika, Germany).
# [10] = molecular target: T1, TLR8; experiment: Inhibition of TLR8 agonist-stimulated TNF release (ELISA) in THP-1 macrophages
# [11] = molecular target: T1, TLR8; experiment: Inhibition of TL8-506-stimulated TNF release (ELISA) in PBMCs; details: read-out: IC50 [μM] (95% CI) TNF release PBMCs, 1 h preincubation, TL8-506 (0.6 μM) 4 h
# [12] = molecular target: T1, TLR8; details: TL8-506 alone
SMILES,Cell viability THP-1 macrophages [1],mRNA expression levels of TNF and IL1B [2],Activity against other TLRs (NF-κB activation) [3],TNF responses to TLR2 or TLR4 agonists [4],IL-1β release [5],Cell viability PBMCs [6],IκBα level [7],p-NF-κB p65 level [7],IC50 [8] [µM],"inhibition at 10 µM ([8]; read-out: % inhibition at 10 µM ± SEM (NF-κB activity), 10 µM compound, TL8-506 (0.6 μM) 24 h, hTLR8-HEK293) [%]","IC50 ([8]; read-out: IC50 [μM] (95% CI) hTLR8-HEK293, inhibition of NF-κB activity, 1 h preincubation, TL8-506 (0.6 μM) 24 h) [µM]",Selectivity factor IC50 (TLR7)/ IC50 (TLR8) ([9]; hTLR7-HEK293 vs hTLR8-HEK293),"IC50 ([9]; read-out: IC50 [μM] (95% CI) hTLR7-HEK293, inhibition of NF-κB activity, 1 h preincubation, CL307 (1.7 µM) 24 h) [µM]","TNF production in response to TLR8 agonists TL8-506 or CL075 ([10]; 10 μM compound, THP-1 macrophages, 24 h)","IC50 ([10]; read-out: IC50 [μM] (95% CI) TNF release THP-1 macrophages, 1 h preincubation, TL8-506 (0.6 μM) 4 h, ELISA) [µM]",IC50 [11] [µM],ECmax [%] (95% CI) of TL8-506 [12],EC50 ([12]; read-out: EC50 [µM] (95% CI) of TL8-506)
CCN1CCC(NC(=O)c2ccc(OCc3c(C)noc3C)c(OC)c2)CC1 [Compound 10],unaffected up to 100 μM,significantly inhibited,no significant activity against other TLRs,without influencing responses,blocked,without affecting cell viability up to 100 μM,increased,reduced,,,,,,,,,,
COc1cc(C(=O)NCC(c2ccc(C)cc2)N(C)C)ccc1OCc1c(C)noc1C (stereo not drawn) [Compound 12],unaffected up to 100 μM,,,without influencing responses,,without affecting cell viability up to 100 μM,,,< 0.5,83 ± 15,0.5,>102,> 50,selectively inhibited,0.12,1.15,,
CCOC(=O)C1=Cc2ccc(-c3cccc(C#N)c3)cc2N=C(N)C1 [TL8-506],,,,,,,,,,,,,,,,,97.6 (92.9-104.7) %,0.19
